Values after ≈ are worked out from the molar mass of the structure shown.

One experiment relates to Bacillus subtilis. As to the kind of experiment: Antibacterial activity against Bacillus subtilis E168 assessed as inhibition of bacterial growth incubated for 18 hrs by 2-fold serial dilution method. The class given is functional.
A further experiment relates to Staphylococcus aureus. As to the kind of experiment: Antibacterial activity against Staphylococcus aureus ATCC 43300 assessed as inhibition of bacterial growth incubated for 18 hrs by 2-fold serial dilution method. The class given is functional.
The subject of the next experiment is Escherichia coli. The experiment can be described thus: Antibacterial activity against Escherichia coli ATCC35218 assessed as inhibition of bacterial growth incubated for 18 hrs by 2-fold serial dilution method. The class given is functional.
The next experiment deals with A549. The experiment can be described thus: Cytotoxicity against human A549 cells assessed as reduction in cell viability incubated for 72 hrs by CCK8 assay. The note with it: A549, 72 h. The class given is functional, cell-based.
The subject of the next experiment is K562. The experiment can be described thus: Cytotoxicity against human K562 cells assessed as reduction in cell viability incubated for 72 hrs by CCK8 assay. It counts as functional, cell-based. The note with it: K562, 72 h.
Experiment [1] deals with Staphylococcus epidermidis. The experiment can be described thus: Antibacterial activity against Staphylococcus epidermidis ATCC12228 assessed as inhibition of bacterial growth incubated for 18 hrs by 2-fold serial dilution method. As to conditions: ATCC12228, 18 h.

`C/C=C\c1ccccc1/C=C/C(=O)N/C(=C\C)C(=O)N[C@@H](C)C(=O)N[C@H](C(N)=O)[C@H](C)C(=O)N1CC(=O)N[C@@H]([C@@H](O)c2ccccc2)C(=O)N2CCC[C@H]2C(=O)N[C@@H]([C@@H](O)c2ccc(OC)cc2)C(=O)N[C@H](Cc2c[nH]c3ccccc23)C1=O`: the minimal inhibitory concentration (MIC) (commonly the lowest concentration found to suppress growth) is 16 µM (≈ 18.4 µg/mL) with Bacillus subtilis, 16 µM (≈ 18.4 µg/mL) with Staphylococcus aureus, more than 128 µM with Escherichia coli and 16 µM (≈ 18.4 µg/mL) in experiment [1]. Besides, the IC50 in the experiment with A549 and with K562 was more than 10 µM throughout.

Turning to `C/C=C\c1ccccc1/C=C/C(=O)N[C@H](C(=O)N[C@@H](C)C(=O)N[C@@H](CC(=O)N1CC(=O)N[C@@H]([C@@H](O)c2ccccc2)C(=O)N2CCC[C@H]2C(=O)N[C@@H]([C@@H](O)c2ccc(OC)cc2)C(=O)N[C@H](Cc2c[nH]c3ccccc23)C1=O)C(N)=O)[C@@H](C)O`, the MIC is 64 µM (≈ 73.8 µg/mL) in the experiment with Bacillus subtilis, 64 µM (≈ 73.8 µg/mL) in the experiment with Staphylococcus aureus, more than 128 µM in the experiment with Escherichia coli and 128 µM (≈ 148 µg/mL) in experiment [1]. For the same molecule, the IC50 in the experiment on A549 and in the experiment on K562 was more than 10 µM throughout.

For `NC[C@H]1O[C@H](O[C@H]2[C@H](O)[C@@H](O[C@H]3O[C@H](CO)[C@@H](O)[C@H](N)[C@H]3O)[C@H](N)C[C@@H]2N)[C@H](O)[C@@H](O)[C@@H]1O` [KANAMYCIN], the MIC (with Bacillus subtilis; with Staphylococcus aureus; in the experiment on Escherichia coli; in experiment [1]) was less than 2 µM in each case.

In the case of `C/C=C\c1ccccc1/C=C/C(=O)N[C@@H]1C(=O)N[C@@H](C)C(=O)N[C@@H](CC(=O)O)C(=O)NCC(=O)N[C@@H]([C@@H](O)c2ccccc2)C(=O)N2CCC[C@H]2C(=O)N[C@@H]([C@@H](O)c2ccc(OC)cc2)C(=O)N[C@H](Cc2c[nH]c3ccccc23)C(=O)N[C@@H](O)C(=O)N[C@H](CC(C)C)C(=O)N[C@H]([C@@H](O)C(C)C)C(=O)O[C@@H]1C`, the MIC in the experiment with Bacillus subtilis is 48 µM (≈ 70.5 µg/mL); in the experiment with Staphylococcus aureus, 32 µM (≈ 47 µg/mL); in the experiment on Escherichia coli it was more than 128 µM; in experiment [1], 64 µM (≈ 94.1 µg/mL). For the same molecule, the IC50 in the experiment with A549 and with K562 was more than 10 µM in each case.

Regarding `C/C=C\c1ccccc1/C=C\C(=O)N[C@H](C(=O)N[C@@H](C)C(=O)N[C@H](C(N)=O)[C@H](C)C(=O)N1CC(=O)N[C@@H]([C@@H](O)c2ccccc2)C(=O)N2CCC[C@H]2C(=O)N[C@@H]([C@@H](O)c2ccc(OC)cc2)C(=O)N[C@H](Cc2c[nH]c3ccccc23)C1=O)[C@@H](C)O`, the MIC in the experiment with Bacillus subtilis is 64 µM (≈ 74.7 µg/mL); in the experiment with Staphylococcus aureus it was 32 µM (≈ 37.4 µg/mL); in the experiment on Escherichia coli, more than 128 µM; in experiment [1], 64 µM (≈ 74.7 µg/mL). Moreover, the IC50 with A549 and in the experiment on K562 was more than 10 µM throughout.

In the case of `C/C=C\c1ccccc1/C=C\C(=O)N[C@H](C(=O)N[C@@H](C)C(=O)N[C@@H](CC(=O)O)C(=O)NCC(=O)N[C@H](C(=O)N1CCC[C@H]1C(=O)N[C@H](C(=O)N[C@H](Cc1c[nH]c2ccccc12)C(N)=O)[C@@H](O)c1ccc(OC)cc1)[C@@H](O)c1ccccc1)[C@@H](C)O`, the MIC with Bacillus subtilis was more than 128 µM; with Staphylococcus aureus it was 64 µM (≈ 75 µg/mL); in the experiment with Escherichia coli it was more than 128 µM; in experiment [1] it was more than 128 µM. Besides, the half-inhibitory concentration (IC50) in the experiment on A549 and with K562 was more than 10 µM throughout.

Turning to `C/C=C\c1ccccc1/C=C/C(=O)N[C@H](C(=O)N[C@@H](C)C(=O)N[C@@H](CC(=O)O)C(=O)NCC(=O)N[C@H](C(=O)N1CCC[C@H]1C(=O)N[C@H](C(=O)N[C@H](Cc1c[nH]c2ccccc12)C(N)=O)[C@@H](O)c1ccc(OC)cc1)[C@@H](O)c1ccccc1)[C@@H](C)O`, the MIC was more than 128 µM in the experiment on Bacillus subtilis, 64 µM (≈ 75 µg/mL) with Staphylococcus aureus, more than 128 µM with Escherichia coli and more than 128 µM in experiment [1]. Further, the 50% inhibitory concentration (IC50) with A549 and in the experiment on K562 was more than 10 µM throughout.

Regarding `C/C=C\c1ccccc1/C=C/C(=O)N[C@@H]1C(=O)N[C@@H](C)C(=O)N[C@@H]([C@H](C)C(=O)O)C(=O)NCC(=O)N[C@@H]([C@@H](O)c2ccccc2)C(=O)N2CCC[C@H]2C(=O)N[C@@H]([C@@H](O)c2ccc(OC)cc2)C(=O)N[C@H](Cc2c[nH]c3ccccc23)C(=O)N[C@@H](O)C(=O)N[C@H](CC(C)C)C(=O)N[C@H]([C@@H](O)C(C)C)C(=O)O[C@@H]1C`, the MIC in the experiment on Bacillus subtilis was 16 µM (≈ 23.7 µg/mL); with Staphylococcus aureus, 16 µM (≈ 23.7 µg/mL); with Escherichia coli, more than 128 µM; in experiment [1], 32 µM (≈ 47.5 µg/mL). Moreover, the IC50 with A549 and in the experiment with K562 was more than 10 µM each time.

For `C/C=C\c1ccccc1/C=C/C(=O)N[C@H](C(=O)N[C@@H](C)C(=O)N[C@H](C(N)=O)[C@H](C)C(=O)N1CC(=O)N[C@@H]([C@@H](O)c2ccccc2)C(=O)N2CCC[C@H]2C(=O)N[C@@H]([C@@H](O)c2ccc(OC)cc2)C(=O)N[C@H](Cc2c[nH]c3ccccc23)C1=O)[C@@H](C)O`, the minimal inhibitory concentration (MIC) is 32 µM (≈ 37.4 µg/mL) in the experiment with Bacillus subtilis, 32 µM (≈ 37.4 µg/mL) in the experiment with Staphylococcus aureus, more than 128 µM in the experiment with Escherichia coli and 64 µM (≈ 74.7 µg/mL) in experiment [1]. The IC50 with A549 and with K562 was more than 10 µM throughout.

Source of the values: ChEMBL document CHEMBL5233290, “Anulamycins A-F, Cinnamoyl-Containing Peptides from a Lake Sediment Derived Streptomyces” (J Nat Prod, 2023).
